Assay results taken from patent US20160361326A1, “METHOD OF TREATING HYPERGLYCEMIA AND DIABETES AND OF INCREASING ADSORPTION AND EFFICACY OF VITAMIN D” (Board of Supervisors of Louisiana State University and …, priority 2015, published 2016).

Legend:
THP-1 monocytes = experiment: L-cysteine and vitamin D supplementation in control and high-glucose treated THP-1 monocytes; type: cell-based, human
Method: Control cells were treated with mannitol, which is considered an osmolarity control. To investigate the role of glutathione, siRNA specific for glutamate cysteine ligase catalytic unit (the catalytic component of the enzyme) was used to knock down the enzyme and induce glutathione deficiency. Complexes of glutamate cysteine ligase catalytic unit siRNA (Santa Cruz Biotechnology) and lipofectamine (Invitrogen) were allowed to form in culture flasks in serum free media, to which cells suspended in serum free media were added. After 24 hours complete media with serum was added and the cells were then treated as described in the figures.
25-hydroxy vitamin D (calcidiol) blood test is used to determine how much vitamin D is in the body. The blood concentration of calcidiol is considered an standard indicator of vitamin D status. The kit includes polyclonal antibodies that detect total vitamin D binding protein levels. Levels of glutathione and L-cysteine were determined using HPLC. Details of immunoblotting and cell viability are similar to those given in the publication Vitamin D and 1-cysteine levels correlate positively with glutathione and negatively with insulin resistance levels in the blood of type 2 diabetic patients. Eur J Clin Nutr 68: 1148-1153, 2014 by Jain S K, Micinski D, Huning L, Kahlon G, Bass P F, and Levine SN—such described methods incorporated by reference herein. The antibodies for glutamate cysteine ligase catalytic unit (73 KD), vitamin D binding protein (52 KD), and vitamin D receptor (48 KD) were purchased from Abcam (Cambridge, Mass.).

FL83B hepatocytes = experiment: L-cysteine supplementation in FL83B hepatocytes treated with control and high glucose; type: cell-based, mouse
Method: The FL83B hepatocyte cell line was purchased from American Type Culture Collection (ATCC, Manassas, Va., USA). FL83B hepatocytes were cultured and maintained in F-12K complete medium. […] Control cells were treated with mannitol, which is considered an osmolarity control in some experiments. After 24 h, complete media with serum was added and the cells were then treated as described in the figures.
Levels of glutathione and L-cysteine were determined using HPLC. In cell culture studies, the whole cell suspension was processed for the glutathione assay. Cell viability was determined using the Alamar Blue method (Alamar Biosciences, Sacramento, Calif., USA). Details of immunoblotting are similar to those known in the art. The antibodies for vitamin D binding protein (52 KD), β-Actin (40 KD), glutamate-cysteine ligase catalytic subunit (GCLC) (75 KD), and vitamin D receptor (48 KD) were purchased from Abcam (Cambridge, Mass., USA). The intensity of each immunoblotting band was measured using the histogram tool of Adobe Photoshop CS5.
mRNA extraction and cDNA synthesis were done as described in the previous section. The following primers were used for hepatocytes: vitamin D binding protein (also called GC) (Mm04243540_m1), vitamin D receptor (Mm00437297_m1), GCLC (Mm00802655_m1), and GAPDH (Mm03302249_g1) and were purchased from Invitrogen. Sequence of oligonucleotides of primers used is given in Supporting Information Material. The relative fold change of mRNA was calculated using the relative quantification (ΔΔCT) method and then normalized to % control for representation.

[1] = test system: Zucker diabetic fatty rats; experiment: L-cysteine supplementation in Zucker diabetic fatty rats: plasma levels of VDBP, 25(OH) vitamin D, glutathione, MCP-1, CRP; type: in vivo, rat; conditions: 1 mg/kg BW daily oral gavage, 8 weeks
From the text: (§1) The animal protocol was approved by the institutional Animal Welfare Committee (P-15-006). All procedures performed were in accordance with the ethical standards of the institution. Male Zucker diabetic fatty rats at an age of 5 weeks and weighing about 200-220 g were purchased from Charles River (Wilmington, Mass., USA). The animals were allowed to acclimate to the environmental and handling conditions for 2 days. Computer generated randomization was used to divide rats into two groups, after which they were housed and labelled in individual cages. After overnight fasting they were weighed and tested for hyperglycemia by measuring their blood glucose concentration. Blood was collected via tail incision and the blood glucose levels were measured using an Advantage Accu-chek glucometer (Boehringer Mannheim Corp., Indianapolis, Ind., USA). One group of rats was labeled as diabetic controls and gavaged with saline alone. […] A third group included in the study, called the control group, consisted of male Sprague Dawley (SD) rats who were also gavaged daily with saline. […] Blood glucose and body weight were monitored weekly in all rats. Based on any change in their weights the L-cysteine supplementation dose was adjusted accordingly every week to maintain a similar dose per Kg BW over the entire period of the study.
(§2) All Zucker diabetic fatty rats were fed a high calorie Purina 5008 lab chow diet (Charles River, Wilmington, Mass., USA). This diet contained 3.4 IU vitamin D3 per gram diet. Sprague Dawley rats were fed a standard 8640 lab chow diet, which contained 3 IU vitamin D3 per gram diet (Harlan, Indianapolis, Ind., USA); both Zucker diabetic fatty and Sprague Dawley rats were maintained at 22 ±2° C. with 12:12-h light/dark cycles. Food intake of all rats was monitored. The control group contained six rats. There were also six rats each in the placebo and L-cysteine-supplemented diabetic rat groups. At the end of 8 weeks the rats were fasted overnight and euthanized by exposing them to halothane (2-bromo-2-chloro-1,1,1-trifluoroethane). Blood was drawn with a 191/2 gauge needle via cardiac puncture into vacutainer tubes. Aliquots of blood collected from all rats were sent to the clinical laboratory of LSUHSC-Shreveport for blood chemistry profiles, including liver and renal function and red blood cell counts. Plasma was isolated in a 4° C. centrifuge at 3000 rpm for 10 min from blood collected into EDTA tubes. Rat livers were perfused using cold saline. Once extracted, they were labeled appropriately, and stored at −80° C.
Plasma levels of 25(OH) vitamin D, […] were determined using an ELISA kit (Eagle Biosciences, Nashua, N.H., USA). Plasma vitamin D binding protein quantification was carried out using a kit purchased from Alpco (Salem, N.H., USA). The kit includes polyclonal antibodies that detect total vitamin D binding protein levels. The cytokines MCP-1 (R&D Systems Inc., Minneapolis, Minn., USA) and CRP (Alpco) were determined using the sandwich ELISA method and commercially available kits. In the cytokine assay, control samples were analyzed each time to check the variation from plate to plate on different days of analysis. […]
Levels of glutathione and L-cysteine were determined using HPLC. […] Cell viability was determined using the Alamar Blue method (Alamar Biosciences, Sacramento, Calif., USA). […] The intensity of each immunoblotting band was measured using the histogram tool of Adobe Photoshop CS5.

[2] = test system: Zucker diabetic fatty rats; experiment: L-cysteine supplementation in Zucker diabetic fatty rats: liver protein and mRNA expression, glutathione, reactive oxygen species; type: in vivo, rat; conditions: 8 weeks
From the text: as §1, §2
About 50 mg of liver tissue was weighed and homogenized in 1 mL TRIzol reagent (Invitrogen, Grand Island, N.Y., USA). The RNA extraction was performed according to the instructions provided. The concentration and quality of the extracted RNA were determined on a NanoDrop spectrophotometer (Thermo Scientific, Pittsburgh, Pa., USA). A High Capacity RNA-To-cDNA kit (Invitrogen) was used to synthesize cDNA. QPCR was performed using a 7900HT Real Time PCR system and software (Applied Biosystems, Grand Island, NY, USA) using the FAM-labeled primer/probe set Rn00561256_m1 for vitamin D binding protein (also called GC), Rn00690616_m1 for vitamin D receptor, Rn01754615 ml for CYP2R1, and Rn01775763_g1 for GAPDH (Invitrogen), respectively. The relative fold change of mRNA was calculated using the relative quantification (ΔΔCT) method.
Levels of glutathione and L-cysteine were determined using HPLC. In cell culture studies, the whole cell suspension was processed for the glutathione assay. Cell viability was determined using the Alamar Blue method (Alamar Biosciences, Sacramento, Calif., USA). Details of immunoblotting are similar to those known in the art. The antibodies for vitamin D binding protein (52 KD), β-Actin (40 KD), glutamate-cysteine ligase catalytic subunit (GCLC) (75 KD), and vitamin D receptor (48 KD) were purchased from Abcam (Cambridge, Mass., USA). […]

[3] = L-cysteine supplementation in Zucker diabetic fatty rats: body weight, plasma lipids, liver and kidney function tests; type: in vivo, rat
From the text: as §1, with “rats.” for “rats. Based on any change in their weights the L-cysteine supplementation dose was adjusted accordingly every week to maintain a similar dose per Kg BW over the entire period of the study.”
as §2, with “There were also six rats each in the placebo and L-cysteine-supplemented diabetic rat groups.” left out

[4] = hepatocytes cultured with high glucose (25 mM)
[5] = vs placebo-supplemented diabetic rats
[6] = 1 mg/kg BW daily oral gavage, vs placebo
[7] = 1 mg/kg BW daily gavage for 8 weeks, mean ± SE, n=6
[8] = control and high glucose (25 mM)

Compound: N[C@@H](CS)C(=O)O [L-cysteine]
- glutathione levels (THP-1 monocytes): significant upregulation
- mRNA levels of vitamin D binding protein (FL83B hepatocytes; [4]): upregulation
- mRNA levels of vitamin D receptor (FL83B hepatocytes; [4]): upregulation
- protein expression of vitamin D binding protein (FL83B hepatocytes; [4]): upregulation
- protein expression of vitamin D receptor (FL83B hepatocytes; [4]): upregulation
- decrease in glutathione levels after high glucose treatment (FL83B hepatocytes; hepatocytes, high glucose (25 mM)): prevented
- plasma glutathione ([1]; vs placebo): increase
- blood levels of 25(OH) vitamin D [1, 5]: significantly higher
- blood levels of vitamin D binding protein [1, 5]: significantly higher
- CRP ([1]; plasma, vs placebo): decrease
- MCP-1 ([1]; plasma, vs placebo): decrease
- glutathione levels in liver [2, 6]: significantly higher
- mRNA expression of vitamin D 25-hydroxylase (CYP2R1) in liver [2, 6]: significantly higher
- mRNA expression of vitamin D binding protein in liver [2, 6]: significantly higher
- protein expression of vitamin D 25-hydroxylase (CYP2R1) in liver [2, 6]: significantly higher
- protein expression of vitamin D binding protein in liver [2, 6]: significantly higher
- reactive oxygen species levels in liver [2, 6]: significantly lower
- expression of protein for vitamin D receptor in liver ([2]; 1 mg/kg BW, higher vs placebo, p=0.17): not statistically significant
- expression of mRNA for vitamin D receptor in liver ([2]; 1 mg/kg BW, higher vs placebo, p=0.30): not statistically significant
- Body weight [3, 7]: 346 ± 6.3 g
- Triglycerides [3, 7]: 509 ± 55 mg/dL
- side effects of L-cysteine supplementation ([3]; 1 mg/kg BW daily gavage for 8 weeks, vs placebo): no negative side effects
- Calcium ([3]; rat, in vivo, 1 mg/kg): 9.9 ± 0.4 mg/dL

Compound: C=C1CC[C@H](O)C/C1=C/C=C1\CCC[C@]2(C)[C@@H]([C@H](C)CCCC(C)C)CC[C@@H]12 [vitamin D, cholecalciferol]
- vitamin D binding protein expression (VDBP/actin ratio) (THP-1 monocytes; [8]): increase
- vitamin D receptor protein expression (VDR/actin ratio) (THP-1 monocytes; [8]): increase
